Earlier results, collected in US20070196517A1, “Modified Saponin Molluscicide” (priority 2005, published 2007).
Where a name gives a salt, the structure may show the parent alone.

Assays:
tropical fish (carp) = details: carp (WHO 2002)
golden apple snails = details: rice fields (Bayer, 2005)

O=C(Nc1ccc([N+](=O)[O-])cc1Cl)c1cc(Cl)ccc1O [Niclosamide, 2-aminoethanol salt of 2′,5-dichloro-4′,nitro-salicylanilide]
LC50 (kills 50% of tropical fish) (tropical fish (carp)): 0.14 mg/L
effective doses for control of golden apple snail (golden apple snails): 0.5 to 1.0 mg/L
